# Source: patent publication US20180153995A1, “USE OF ANTIMICROBIAL POLYMERS FOR RE-SENSITIZATION OF MICROORGANISMS UPON EMERGENCE OF RESISTANCE TO ANTI-MICROBIAL AGENTS” (Technion Research & Development Foundation Limited, priority 2008, published 2018)
# Where two headings read alike, the source gives them in different places.
# Tests used:
# S. aureus 15819 = test: Antibiotic MIC by microdilution with or without sub-MIC polymer; format: cell-based, Staphylococcus aureus; conditions: S. aureus 15819
# MRSA 15903 = test: microbe, parasite or virus in culture; format: cell-based, Staphylococcus aureus
# Procedure, shortened: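 Two-agent combinations tested against MRSA 15903; FIC index = A/MICA + B/MICB, using MICs in combination versus alone. Below 0.5 read as clear re-sensitizing, 0.5–4 marginal or null, above 4 antagonism.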
# S. maltophila 748 = test: Antibiotic MIC by microdilution with or without sub-MIC polymer; format: cell-based, Stenotrophomonas maltophila
# S. aureus 43300 = test: as above; format: cell-based, Staphylococcus aureus
# Method: MICs were determined by microdilution susceptibility testing in 96-well plates (by Nunc) using inocula of 10^5 bacteria per ml. Cell populations were evaluated by optical density measurements at 620 nm and were calibrated against a set of standards. Hundred (100) μl of a bacterial suspension were added to 100 μl of culture medium (control) or to 100 μl of culture medium containing various polymer concentrations in 2-fold serial dilutions. Inhibition of proliferation was determined by optical density measurements at 620 nm after an incubation period of 24 hours at 37° C.
# Table 8 below presents the MIC values of antibiotics in presence or absence of C12(5-ene)KKNC12KNH2 (SEQ ID NO: 2) at sub-MIC levels of the polymer, as measured for the S. aureus strains 43300 (ATCC), 15819 (clinical isolate), 15877 (clinical isolate) and 15852 (clinical isolate). MICs were determined by microdilution susceptibility testing in 96-well plates (Nunc) using inocula of 10^5 bacteria per ml. One hundred (100) μl of a bacterial suspension were added to 100 μl of culture medium (control) or to 100 μl of culture medium containing various antibiotic and C12(5-ene)KKNC12KNH2 (SEQ ID NO: 2) concentrations in 2-fold serial dilutions. Inhibition of proliferation was determined by optical density measurements at 620 nm after an incubation period of 24 hours at 37° C.
# 100 μl of a bacterial suspension were added to 100 μl of culture medium (control) or to 100 μl of culture medium containing various antibiotic and C14(9-ene)KKNC12KNH2 (SEQ ID NO: 5) concentrations in 2-fold serial dilutions. Inhibition of proliferation was determined by optical density measurements at 620 nm after an incubation period of 24 hours at 37° C.
# E. coli 14182 = test: as above; format: cell-based, Escherichia coli
# [1] = test system: E. coli K-12 resistant wild type; format: cell-based, Escherichia coli; conditions: E. coli AG100 (w.t.)
# [2] = +½ MIC (3.12 μM) C12K(KNC12K)3NH2
# [3] = +⅓ MIC (2.1 μM) C12K(KNC12K)3NH2
compound,measurement,setting,value
"Cc1onc(-c2ccccc2)c1C(=O)N[C@@H]1C(=O)N2[C@@H]1SC(C)(C)[C@@H]2C(=O)O [Oxacillin, oxacillin]",Antibiotic MIC,S. aureus 15819; [2],0.5 to 1 µg/mL
same,Antibiotic MIC,S. aureus 15819; +½ MIC (3.12 μM) C12KKNC12KNH2,2 µg/mL
same,Antibiotic MIC,S. aureus 15819; +⅓ MIC (2.1 μM) C12(5-ene)KKNC12KNH2,2 µg/mL
same,Antibiotic MIC,S. aureus 15819; [3],2 µg/mL
same,Antibiotic MIC,S. aureus 15819; +⅓ MIC (2.1 μM) C12KKNC12KNH2,8 µg/mL
same,Antibiotic MIC,"S. aureus 15819; no polymer (None), Table 8",4 µg/mL
same,Antibiotic MIC,"S. aureus 15819; no polymer (None), Table 11",8 µg/mL
same,Antibiotic MIC,"S. aureus 15819; no polymer (None), Table 13",8 µg/mL
same,MIC,"MRSA 15903; MRSA 15903, +¼ polymer MIC (1.6 μM) NC12(KNC12K)2NH2",256 µg/mL
same,MIC,"MRSA 15903; MRSA 15903, +½ polymer MIC (3.1 μM) NC12(KNC12K)2NH2",0.17 µg/mL
same,MIC,"MRSA 15903; MRSA 15903, +⅓ polymer MIC (2.1 μM) NC12(KNC12K)2NH2",0.34 µg/mL
same,MIC,"MRSA 15903; MRSA 15903, antibiotic alone",256 µg/mL
same,concentration up to which oxacillin alone is inactive,"MRSA 15903; MRSA 15903, oxacillin alone",> 25 µM
same,"MIC, ½ + MIC OAK","MRSA 15903; MRSA 15903, with C12K(KNC10K)3NH2 (SEQ ID NO: 10) at ½ of its MIC",0.5 µg/mL
same,"MIC, ⅓ + MIC OAK","MRSA 15903; MRSA 15903, with C12K(KNC10K)3NH2 (SEQ ID NO: 10) at ⅓ of its MIC",16 to 64 µg/mL
same,MIC,"MRSA 15903; S. aureus CI-15903, +polymer (¼ MIC) C12(5-ene)KKNC12KNH2",64 µg/mL
same,MIC,"MRSA 15903; S. aureus CI-15903, +polymer (½ MIC) C12(5-ene)KKNC12KNH2",0.25 µg/mL
same,MIC,"MRSA 15903; S. aureus CI-15903, +polymer (⅓ MIC) C12(5-ene)KKNC12KNH2",4 µg/mL
same,MIC,"MRSA 15903; S. aureus CI-15903, alone",256 µg/mL
same,MIC,"MRSA 15903; Staphylococcus aureus, MRSA, 24 h",256 µg/mL
same,MIC,"MRSA 15903; Staphylococcus aureus, MRSA, read-out: MIC of oxacillin",256 µg/mL
same,MIC,"MRSA 15903; Staphylococcus aureus, MRSA, read-out: MIC of oxacillin, MRSA 15903, + ½ MIC NC12(KNC12K)2NH2",0.4 µM
same,MIC,"MRSA 15903; Staphylococcus aureus, MRSA, read-out: MIC of oxacillin, MRSA 15903, + ½ MIC NC12(KNC12K)2NH2 (text)",0.17 µg/mL
same,MIC,"MRSA 15903; Staphylococcus aureus, MRSA, read-out: MIC of oxacillin, MRSA 15903, + ⅓ MIC NC12(KNC12K)2NH2",0.8 µM
same,MIC,"MRSA 15903; Staphylococcus aureus, MRSA, read-out: MIC of oxacillin, MRSA 15903, + ⅓ MIC NC12(KNC12K)2NH2 (text)",0.34 µg/mL
same,MIC,"MRSA 15903; Staphylococcus aureus, MRSA, read-out: MIC of oxacillin, MRSA 15903, oxacillin alone",576 µM
same,Antibiotic MIC,S. maltophila 748; +¼ MIC (1.6 μM) C12K(KNC12K)3NH2,512 µg/mL
same,Antibiotic MIC,S. maltophila 748; [2],256 µg/mL
same,Antibiotic MIC,S. maltophila 748; [3],512 µg/mL
same,Antibiotic MIC,"S. maltophila 748; no polymer (None), Table 13",512 µg/mL
same,Antibiotic MIC,S. aureus 43300; +¼ MIC (1.6 μM) C14(9-ene)KKNC12KNH2,0.25 to 0.5 µg/mL
same,Antibiotic MIC,S. aureus 43300; +½ MIC (3.12 μM) C12(5-ene)KKNC12KNH2,0.06 µg/mL
same,Antibiotic MIC,S. aureus 43300; +½ MIC (3.12 μM) C14(9-ene)KKNC12KNH2,0.25 µg/mL
same,Antibiotic MIC,S. aureus 43300; +⅓ MIC (2.1 μM) C14(9-ene)KKNC12KNH2,0.25 µg/mL
same,Antibiotic MIC,"S. aureus 43300; no polymer (None), Table 8",0.5 to 1 µg/mL
same,Antibiotic MIC,"S. aureus 43300; no polymer (None), Table 9",0.5 µg/mL
same,Antibiotic MIC,"S. aureus 43300; no polymer (None), Table 10",0.5 to 1 µg/mL
same,Antibiotic MIC,"S. aureus 43300; no polymer (None), Table 11",0.5 µg/mL
same,Antibiotic MIC,"S. aureus 43300; no polymer (None), Table 12",0.5 µg/mL
same,Antibiotic MIC,E. coli 14182; +½ MIC C12K(NC8K)5NH2,>512 µg/mL
same,"Antibiotic MIC, None",E. coli 14182; antibiotic alone (Table 15),>512 µg/mL
same,Antibiotic MIC,"E. coli 14182; no polymer (None), Table 14",>512 µg/mL
same,"Antibiotic MIC in presence of C12K(NC8K)7NH2 (SEQ ID NO: 4), +¼ MIC",E. coli 14182; polymer at ¼ of its MIC,>512 µg/mL
same,"Antibiotic MIC in presence of C12K(NC8K)7NH2 (SEQ ID NO: 4), +½ MIC",E. coli 14182; polymer at ½ of its MIC,>512 µg/mL
same,"Antibiotic MIC in presence of C12K(NC8K)7NH2 (SEQ ID NO: 4), +⅓ MIC",E. coli 14182; polymer at ⅓ of its MIC,>512 µg/mL
same,"Antibiotic MIC, None",[1]; antibiotic alone (Table 16),512 µg/mL
same,"Antibiotic MIC, None",[1]; antibiotic alone (Table 17),512 µg/mL
same,"Antibiotic MIC in presence of C12K(NC8K)7NH2 (SEQ ID NO: 4), +½ MIC",[1]; polymer at ½ of its MIC (Table 16),32 to 64 µg/mL
same,"Antibiotic MIC in presence of the OAK, +¼ MIC",[1]; the OAK at ¼ of its MIC (Table 17),256 µg/mL
same,"Antibiotic MIC in presence of the OAK, +½ MIC",[1]; the OAK at ½ of its MIC (Table 17),32 to 64 µg/mL
